{"source": "patent US10538555B2", "about": "“Macrocyclic inhibitors of the PD-1/PD-L1 and CD80(B7-1)/PD-L1 protein/protein interactions” (BRISTOL-MYERS SQUIBB COMPANY, priority 2014, dated 2020)", "target": "T1, Human PD-L1/PD-1 (Homo sapiens, UniProt Q9NZQ7)", "T1 construct": "TVMV protease cleavage site (C); made in house; host or cells: HEK293T cells", "T1 sequence (Q9NZQ7 with tags, fused parts or gaps)": "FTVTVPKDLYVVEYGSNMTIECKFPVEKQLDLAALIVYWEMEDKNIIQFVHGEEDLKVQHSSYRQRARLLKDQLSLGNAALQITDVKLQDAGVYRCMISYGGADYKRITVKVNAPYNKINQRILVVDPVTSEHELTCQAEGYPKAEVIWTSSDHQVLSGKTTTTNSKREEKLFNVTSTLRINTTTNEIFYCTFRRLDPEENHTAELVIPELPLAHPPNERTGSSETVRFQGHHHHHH", "assay": "HTRF Human PD-L1/PD-1 binding assay (PD-1-Ig/PD-L1-His)", "conditions": "PD-L1-His 10 nM, PD-1-Ig 20 nM; class symbol; read-out: HTRF Human PD-L1/PD-1 Binding Assay IC50 Range", "outline": "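HTRF competition using HEK293T-expressed human PD-1(25-167)-Ig at 20 nM and PD-L1(18-239)-His at 10 nM, compound incubated first with PD-L1 for 15 min, then with PD-1 for 15 min. Signal read as 665/620 nm ratio 30 min after adding Eu anti-Ig and APC anti-His antibodies.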", "note": "Where a SMILES comes first, the peptide text is derived from it. Bridges are numbered along the chain shown (N, C = ends). [ ]: non-standard residue; d: D form. ξ: configuration not given here. Trp(1-CH2COOH) = N[C@@H](Cc1cn(CC(=O)O)c2ccccc12)C(=O)O; Phe(3,4,5-F3) = N[C@@H](Cc1cc(F)c(F)c(F)c1)C(=O)O; d(cisHyp) = O=C(O)[C@H]1C[C@@H](O)CN1; Hyp = O=C(O)[C@@H]1C[C@@H](O)CN1; NMeF = CN[C@@H](Cc1ccccc1)C(=O)O; NMeNle = CCCC[C@H](NC)C(=O)O; d(hSer) = N[C@H](CCO)C(=O)O; hSer = N[C@@H](CCO)C(=O)O; NMeA = CN[C@@H](C)C(=O)O; Dab = NCC[C@H](N)C(=O)O; Dap = NC[C@H](N)C(=O)O; ξC = NC(CS)C(=O)O"}
{"smiles": "CCCC[C@H]1C(=O)N(C)[C@@H](CCCC)C(=O)N[C@@H](CCC(=O)O)C(=O)N[C@H](C(=O)NCC(N)=O)CSCC(=O)N[C@@H](Cc2ccc(O)cc2)C(=O)N(C)[C@@H](C)C(=O)N[C@@H](CC(N)=O)C(=O)N2CCC[C@H]2C(=O)N[C@@H](CN)C(=O)N[C@@H](CC(C)C)C(=O)N2C[C@H](O)C[C@H]2C(=O)N[C@@H](Cc2c[nH]c3ccccc23)C(=O)N[C@@H](CO)C(=O)N[C@@H](Cc2c[nH]c3ccccc23)C(=O)N1C", "note": "[Example 5165] ({CH2CO}-Y[NMeA]NP[Dap]L[Hyp]WSW[NMeNle][NMeNle]ECG-NH2; thioether N-14)", "values": [{"measurement": "IC50", "value": "1 to 9.9", "unit": "nM"}]}
{"smiles": "CCCC[C@H]1C(=O)N[C@@H](Cc2ccc(O)cc2)C(=O)N2CCC[C@@H]2C(=O)N[C@@H](Cc2c[nH]c3ccccc23)C(=O)N[C@@H](Cc2ccc(O)cc2)C(=O)N[C@@H](CC(C)C)C(=O)N[C@H](C(=O)NCC(N)=O)CSCC(=O)N[C@@H](Cc2cc(F)c(F)c(F)c2)C(=O)N(C)[C@@H](Cc2ccccc2)C(=O)N(C)[C@@H](CCCC)C(=O)N2CCC[C@@H]2C(=O)N[C@@H](CC(=O)O)C(=O)N[C@@H](C(C)C)C(=O)N1C", "note": "[Example 9213] ({CH2CO}-[Phe(3,4,5-F3)][NMeF][NMeNle][dP]DV[NMeNle]Y[dP]WYLCG-NH2; thioether N-13)", "values": [{"measurement": "IC50", "value": "10 to 99.9", "unit": "nM"}]}
{"smiles": "CCCC[C@H]1C(=O)N(C)[C@@H](CCCC)C(=O)N[C@@H](CCC(=O)O)C(=O)N[C@H](C(=O)NCC(N)=O)CSCC(=O)N[C@@H](Cc2ccc(O)cc2)C(=O)N(C)[C@@H](C)C(=O)N[C@@H](CC(=O)O)C(=O)N2CCC[C@H]2C(=O)N[C@@H](CO)C(=O)N[C@@H](CC(C)C)C(=O)N2C[C@H](O)C[C@H]2C(=O)N[C@@H](Cc2c[nH]c3ccccc23)C(=O)N[C@@H](CCN)C(=O)N[C@@H](Cc2cn(CC(=O)O)c3ccccc23)C(=O)N1C", "note": "[Example 6135] ({CH2CO}-Y[NMeA]DPSL[Hyp]W[Dab][Trp(1-CH2COOH)][NMeNle][NMeNle]ECG-NH2; thioether N-14)", "values": [{"measurement": "IC50", "value": "1 to 9.9", "unit": "nM"}]}
{"smiles": "CCCC[C@H]1C(=O)N(C)[C@@H](CCCC)C(=O)N[C@@H](CCCNC(=N)N)C(=O)NC(C(=O)NCC(N)=O)CSCC(=O)N[C@@H](Cc2ccc(O)cc2)C(=O)N(C)[C@@H](C)C(=O)N[C@@H](CC(N)=O)C(=O)N2CCC[C@H]2C(=O)N[C@@H](Cc2cnc[nH]2)C(=O)N[C@H](CCO)C(=O)N2C[C@H](O)C[C@H]2C(=O)N[C@@H](Cc2c[nH]c3ccccc23)C(=O)N[C@@H](CO)C(=O)N[C@@H](Cc2c[nH]c3ccccc23)C(=O)N1C", "note": "(some centres unmarked) [Example 9125] ({CH2CO}-Y[NMeA]NPH[d(hSer)][Hyp]WSW[NMeNle][NMeNle]R[ξC]G-NH2; thioether N-14)", "values": [{"measurement": "IC50", "value": "10 to 99.9", "unit": "nM"}]}
{"smiles": "CCCC[C@H]1C(=O)N(C)[C@@H](CCCC)C(=O)N[C@@H](CCC(=O)O)C(=O)N[C@H](C(=O)NCC(N)=O)CSCC(=O)N[C@@H](Cc2ccc(OC)cc2)C(=O)N(C)[C@@H](C)C(=O)N[C@@H](CC(N)=O)C(=O)N2CCC[C@H]2C(=O)N[C@@H](CN)C(=O)N[C@@H](CCCCN)C(=O)N2C[C@H](O)C[C@H]2C(=O)N[C@@H](Cc2c[nH]c3ccccc23)C(=O)N[C@@H](CC(=O)O)C(=O)N[C@@H](Cc2c[nH]c3ccccc23)C(=O)N1C", "note": "[Example 7127] ({CH2CO}-Y(Me)[NMeA]NP[Dap]K[Hyp]WDW[NMeNle][NMeNle]ECG-NH2; thioether N-14)", "values": [{"measurement": "IC50", "value": "10 to 99.9", "unit": "nM"}]}
{"smiles": "CCCC[C@H]1C(=O)N(C)[C@@H](CCCC)C(=O)N[C@@H](CC(C)C)C(=O)N[C@H](C(=O)NCC(N)=O)CSCC(=O)N[C@@H](Cc2ccc(O)cc2)C(=O)N(C)[C@@H](C)C(=O)N[C@@H](CCN)C(=O)N2CCC[C@H]2C(=O)N[C@@H](Cc2cnc[nH]2)C(=O)N[C@@H](CCC(=O)O)C(=O)N2C[C@H](O)C[C@H]2C(=O)N[C@@H](Cc2c[nH]c3ccccc23)C(=O)N[C@@H](CO)C(=O)N[C@@H](Cc2cn(CC(=O)O)c3ccccc23)C(=O)N1C", "note": "[Example 6236] ({CH2CO}-Y[NMeA][Dab]PHE[Hyp]WS[Trp(1-CH2COOH)][NMeNle][NMeNle]LCG-NH2; thioether N-14)", "values": [{"measurement": "IC50", "value": "1 to 9.9", "unit": "nM"}]}
{"smiles": "CCCC[C@H]1C(=O)N(C)[C@@H](CCCC)C(=O)N[C@@H](CCC(=O)O)C(=O)N[C@H](C(=O)NCC(N)=O)CSCC(=O)N[C@@H](Cc2ccc(O)cc2)C(=O)N(C)[C@@H](C)C(=O)N[C@@H](CC(=O)O)C(=O)N2CCC[C@H]2C(=O)N[C@@H](Cc2c[nH]cn2)C(=O)N[C@@H](CCC(N)=O)C(=O)N2C[C@H](O)C[C@H]2C(=O)N[C@@H](Cc2c[nH]c3ccccc23)C(=O)N[C@@H](CCC(=O)O)C(=O)N[C@@H](Cc2c[nH]c3ccccc23)C(=O)N1C", "note": "[Example 5158] ({CH2CO}-Y[NMeA]DPHQ[Hyp]WEW[NMeNle][NMeNle]ECG-NH2; thioether N-14)", "values": [{"measurement": "IC50", "value": "10 to 99.9", "unit": "nM"}]}
{"smiles": "CCCC[C@H]1C(=O)N[C@@H](CC(N)=O)C(=O)N2CCC[C@H]2C(=O)N[C@@H](CO)C(=O)N[C@@H](CCO)C(=O)N2CCC[C@H]2C(=O)N[C@@H](Cc2c[nH]c3ccccc23)C(=O)N[C@@H](CO)C(=O)N[C@@H](Cc2c[nH]c3ccccc23)C(=O)N(C)[C@@H](C)C(=O)N(C)[C@@H](C)C(=O)N[C@@H](CCC(=O)O)C(=O)NC(C(=O)NCC(N)=O)CSCC(=O)N[C@@H](Cc2ccc(O)cc2)C(=O)N1C", "note": "(some centres unmarked) [Example 10209] ({CH2CO}-Y[NMeNle]NPS[hSer]PWSW[NMeA][NMeA]E[ξC]G-NH2; thioether N-14)", "values": [{"measurement": "IC50", "value": "1000 to 10000", "unit": "nM"}]}
{"smiles": "CCCC[C@H]1C(=O)N2C[C@H](O)C[C@@H]2C(=O)N[C@@H](CC(=O)O)C(=O)N[C@@H](C(C)C)C(=O)N(C)[C@@H](Cc2ccccc2)C(=O)N[C@@H](CC(=O)O)C(=O)N2C[C@H](O)C[C@@H]2C(=O)N[C@@H](Cc2c[nH]c3ccccc23)C(=O)N[C@@H](Cc2ccc(O)cc2)C(=O)N[C@@H](CC(C)C)C(=O)N[C@H](C(=O)NCC(N)=O)CSCC(=O)N[C@@H](Cc2cc(F)c(F)c(F)c2)C(=O)N(C)[C@@H](Cc2ccccc2)C(=O)N1C", "note": "[Example 9319] ({CH2CO}-[Phe(3,4,5-F3)][NMeF][NMeNle][d(cisHyp)]DV[NMeF]D[d(cisHyp)]WYLCG-NH2; thioether N-13)", "values": [{"measurement": "IC50", "value": "1 to 9.9", "unit": "nM"}]}
{"smiles": "CCCC[C@H]1C(=O)N2CCC[C@@H]2C(=O)N[C@@H](CC(=O)O)C(=O)N[C@@H](C(C)C)C(=O)N(C)[C@@H](Cc2ccccc2)C(=O)N[C@@H](CCC(=O)O)C(=O)N2C[C@H](O)C[C@@H]2C(=O)N[C@@H](Cc2c[nH]c3ccccc23)C(=O)N[C@@H](Cc2ccc(O)cc2)C(=O)N[C@@H](CCOC)C(=O)N[C@H](C(=O)NCC(N)=O)CSCC(=O)N[C@@H](Cc2cc(F)c(F)c(F)c2)C(=O)N(C)[C@@H](Cc2ccccc2)C(=O)N1C", "note": "[Example 10188] ({CH2CO}-[Phe(3,4,5-F3)][NMeF][NMeNle][dP]DV[NMeF]E[d(cisHyp)]WY[hSer](Me)CG-NH2; thioether N-13)", "values": [{"measurement": "IC50", "value": "1 to 9.9", "unit": "nM"}]}
{"smiles": "CCCC[C@H]1C(=O)N(C)[C@@H](CCCC)C(=O)N[C@@H](CCN)C(=O)N[C@H](C(=O)NCC(N)=O)CSCC(=O)N[C@@H](Cc2ccc(O)cc2)C(=O)N(C)[C@@H](C)C(=O)N[C@@H](CC(N)=O)C(=O)N2CCC[C@H]2C(=O)N[C@@H](Cc2cnc[nH]2)C(=O)N[C@@H](CCC(N)=O)C(=O)N2C[C@H](O)C[C@H]2C(=O)N[C@@H](Cc2c[nH]c3ccccc23)C(=O)N[C@@H](CCN)C(=O)N[C@@H](Cc2cn(CC(=O)O)c3ccccc23)C(=O)N1C", "note": "[Example 6293] ({CH2CO}-Y[NMeA]NPHQ[Hyp]W[Dab][Trp(1-CH2COOH)][NMeNle][NMeNle][Dab]CG-NH2; thioether N-14)", "values": [{"measurement": "IC50", "value": "1 to 9.9", "unit": "nM"}]}
